In ChEMBL document CHEMBL4138075, “Concise synthesis and antiproliferative activity evaluation of ellipticine quinone and its analogs” (Eur J Med Chem, 2017):

Key:
[1] = system: HL-60; assay: Antiproliferative activity against human HL60 cells measured after 48 hrs by WST1 assay; type: functional, cell-based; conditions: HL-60, 48 h
[2] = system: HCT-116; assay: Antiproliferative activity against human HCT116 cells measured after 48 hrs by MTT assay; type: functional, cell-based; conditions: HCT-116, 48 h

| Structure (SMILES) | IC50 [1] [µM] | IC50 [2] [µM] |
| --- | --- | --- |
| O=C1c2ccncc2C(=O)c2c1[nH]c1ccccc21 | 3.29 | 0.877 |
| O=C1c2ccncc2C(=O)c2c1[nH]c1ccc([N+](=O)[O-])cc21 | 1.35 | 0.187 |
| O=C1c2ccncc2C(=O)c2c1[nH]c1ccc(Cl)cc21 | 3.88 | 1.38 |
| COc1ccc2c3c([nH]c2c1)C(=O)c1ccncc1C3=O | 9.01 | 3.14 |
| O=C1c2ccncc2C(=O)c2c1[nH]c1cc(Cl)ccc21 | > 10 | 4.07 |
| Cc1ccc2[nH]c3c(c2c1)C(=O)c1cnccc1C3=O | 4.27 | 0.849 |
| O=C1c2ccncc2C(=O)c2c1[nH]c1cc(F)ccc21 | 4.5 | 1.6 |
| COc1ccc2[nH]c3c(c2c1)C(=O)c1cnccc1C3=O | > 10 | 5.43 |
| CC[C@@]1(O)C(=O)OCc2c1cc1n(c2=O)Cc2cc3ccccc3nc2-1 [CAMPTOTHECIN] | 0.019 | 0.159 |

More lines, now with the values ahead:

| IC50 [1] [µM] | IC50 [2] [µM] | Structure (SMILES) |
| --- | --- | --- |
| > 10 | 4.62 | O=C1c2ccncc2C(=O)c2c1[nH]c1cc(C(F)(F)F)ccc21 |
| 5.08 | 1.64 | O=C1c2ccncc2C(=O)c2c1[nH]c1ccc(C(F)(F)F)cc21 |
| 4.43 | 1.25 | O=C1c2ccncc2C(=O)c2c1[nH]c1cc([N+](=O)[O-])ccc21 |
| > 10 | 5.79 | Cc1ccc2c3c([nH]c2c1)C(=O)c1ccncc1C3=O |
| 7.49 | 3.72 | COc1cc2[nH]c3c(c2cc1OC)C(=O)c1cnccc1C3=O |
| 4.5 | 1.13 | O=C1c2ccncc2C(=O)c2c1[nH]c1ccc(F)cc21 |
